Source: patent US20250213701A1, “MEDICAMENT FOR TREATING HUMAN TUMOR BASED ON ERF3A-TARGETING PROTEOLYSIS MECHANISM” (SUZHOU DEGEN BIO-MEDICAL CO., LTD., priority 2022, published 2025)

How the values were obtained:
[1] = target: T1, GSPT1 (Homo sapiens, UniProt P15170+Q96SW2); test: Western blot assay in 22Rv1 cells: GSPT1; type: cell-based; settings: different concentrations at 24 h, and 3 nM at different time points (FIGS. 7 and 8)
T1 construct: The downregulation of SRD5A3 and GSPT1 (eRF3a) proteins in PC-3 and HepG2 cells by C59; endogenous in cells; host or cells: 22Rv1, PC-3, HepG2
T1 sequence (P15170 1-637 isoform P15170-3): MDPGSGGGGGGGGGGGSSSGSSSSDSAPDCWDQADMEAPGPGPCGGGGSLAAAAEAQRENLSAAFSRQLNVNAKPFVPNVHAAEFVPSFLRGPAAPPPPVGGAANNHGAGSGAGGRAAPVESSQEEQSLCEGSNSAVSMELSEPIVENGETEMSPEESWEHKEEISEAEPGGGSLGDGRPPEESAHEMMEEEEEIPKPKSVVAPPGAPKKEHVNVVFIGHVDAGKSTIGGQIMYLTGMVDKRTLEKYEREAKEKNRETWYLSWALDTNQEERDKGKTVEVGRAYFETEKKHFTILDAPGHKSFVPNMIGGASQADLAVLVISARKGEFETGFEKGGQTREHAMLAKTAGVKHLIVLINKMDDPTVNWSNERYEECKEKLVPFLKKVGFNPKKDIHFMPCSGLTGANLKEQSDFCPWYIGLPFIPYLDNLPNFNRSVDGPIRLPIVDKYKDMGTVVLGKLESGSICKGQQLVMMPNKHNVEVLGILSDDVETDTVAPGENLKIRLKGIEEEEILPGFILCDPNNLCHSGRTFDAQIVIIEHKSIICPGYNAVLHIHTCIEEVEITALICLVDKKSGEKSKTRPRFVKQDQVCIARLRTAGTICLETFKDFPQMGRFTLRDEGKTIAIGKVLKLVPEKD
T1 sequence (Q96SW2 whole entry): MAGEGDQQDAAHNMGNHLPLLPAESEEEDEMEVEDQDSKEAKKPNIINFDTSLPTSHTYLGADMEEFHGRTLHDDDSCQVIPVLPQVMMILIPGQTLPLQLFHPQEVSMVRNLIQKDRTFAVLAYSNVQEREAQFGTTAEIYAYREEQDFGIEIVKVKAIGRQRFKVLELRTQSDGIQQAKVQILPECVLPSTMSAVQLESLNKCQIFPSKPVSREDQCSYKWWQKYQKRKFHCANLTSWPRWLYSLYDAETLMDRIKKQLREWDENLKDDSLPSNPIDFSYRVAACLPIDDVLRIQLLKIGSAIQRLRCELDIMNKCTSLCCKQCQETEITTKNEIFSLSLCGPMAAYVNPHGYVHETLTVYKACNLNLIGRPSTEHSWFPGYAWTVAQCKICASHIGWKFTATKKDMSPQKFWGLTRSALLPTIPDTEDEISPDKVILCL
T1 sequence (Q16531 whole entry partner): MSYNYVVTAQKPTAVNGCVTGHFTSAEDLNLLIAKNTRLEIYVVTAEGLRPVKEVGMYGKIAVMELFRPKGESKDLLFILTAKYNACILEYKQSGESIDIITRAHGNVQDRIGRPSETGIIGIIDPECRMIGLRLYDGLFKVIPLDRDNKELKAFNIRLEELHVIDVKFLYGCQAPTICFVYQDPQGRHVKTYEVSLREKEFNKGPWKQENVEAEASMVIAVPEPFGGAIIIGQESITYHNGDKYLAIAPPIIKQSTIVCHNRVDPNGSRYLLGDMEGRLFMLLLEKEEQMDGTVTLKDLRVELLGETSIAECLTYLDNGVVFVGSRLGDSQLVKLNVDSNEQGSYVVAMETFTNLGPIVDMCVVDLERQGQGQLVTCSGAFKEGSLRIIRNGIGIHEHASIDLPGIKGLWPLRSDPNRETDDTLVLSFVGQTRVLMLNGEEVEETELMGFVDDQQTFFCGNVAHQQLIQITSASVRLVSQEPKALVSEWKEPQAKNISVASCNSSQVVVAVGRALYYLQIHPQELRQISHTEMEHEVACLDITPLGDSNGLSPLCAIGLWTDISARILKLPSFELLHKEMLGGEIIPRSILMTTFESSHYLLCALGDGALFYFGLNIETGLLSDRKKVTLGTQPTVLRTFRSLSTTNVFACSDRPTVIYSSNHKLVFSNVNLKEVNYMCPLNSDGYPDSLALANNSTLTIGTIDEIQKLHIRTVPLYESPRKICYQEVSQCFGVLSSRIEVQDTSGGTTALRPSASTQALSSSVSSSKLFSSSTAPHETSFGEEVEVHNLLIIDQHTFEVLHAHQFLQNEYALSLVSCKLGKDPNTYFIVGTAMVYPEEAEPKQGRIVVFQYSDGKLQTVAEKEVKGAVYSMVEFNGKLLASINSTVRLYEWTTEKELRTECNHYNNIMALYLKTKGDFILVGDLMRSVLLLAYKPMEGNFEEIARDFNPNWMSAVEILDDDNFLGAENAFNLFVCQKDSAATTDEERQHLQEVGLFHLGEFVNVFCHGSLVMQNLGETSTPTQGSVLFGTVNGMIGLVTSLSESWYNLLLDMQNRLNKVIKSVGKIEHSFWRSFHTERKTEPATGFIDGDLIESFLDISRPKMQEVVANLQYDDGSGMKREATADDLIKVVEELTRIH
From the text: (§1) Example 84: Western Blot Assay of Compound C59 in 22Rv1, PC-3, and HepG2 Cells
(§2) (1) Materials: 22Rv1, PC-3, and HepG2 cell, anti-SRD5A1 antibody (ab167606), anti-SRD5A2 antibody (ab124877), anti-SRD5A3 antibody (PA5-107029), anti-androgen receptor (AR) antibody (CST, No. 5153), anti-GSPT1 antibody (Abcam, ab234433), anti-GADPH antibody (CST, No. 5174), anti-c-Myc antibody (CST, No. 8583), anti-α-tublin antibody (CST, No. 2125), anti-rabbit IgG, HRP-linked antibody (CST, No. 7074), electrophoresis device and membrane transfer device (LIUYI, BEIJING; DYCZ-24DN)
(§3) Cell seeding: 22Rv1 (Cell Bank of the Chinese Academy of Sciences, TCHu100), PC-3 (Cell Bank of the Chinese Academy of Sciences, SCSP-532) and HepG2 cells (Cell Bank of the Chinese Academy of Sciences, TCHu72) were subcultured and trypsinized to prepare 6×10^5 cells/mL suspensions, seeded on 6-well plates (3 mL/well), and cultured overnight in a cell incubator at 5% CO2 and 37° C. […]
(§4) Protein quantification: The protein was quantified using a BCA protein quantification kit. […]
(§5) Western immunoblot assay (or Western blot, WB): SDS-PAGE gel at a proper concentration was prepared according to the molecular weight of the target protein: for example, the concentration of the separation gel was 8% and the concentration of the stacking gel was 5%. The loading volume was adjusted according to the protein quantification results. […]

[2] = test system: ARV7; test: Western blot assay in 22Rv1 cells: ARV7; type: cell-based, human; settings: different concentrations at 24 h, and 3 nM at different time points (FIGS. 7 and 8)
From the text: as §1, §2, §3, §4, §5

[3] = target: T2, GSPT1 (eRF3a) (Homo sapiens, UniProt P15170+Q96SW2); test: Western blot assay in HepG2 cells: GSPT1 (eRF3a); type: cell-based; settings: different concentrations at 24 h (FIG. 10)
T2 construct: The downregulation of SRD5A3 and GSPT1 (eRF3a) proteins in PC-3 and HepG2 cells by C59; endogenous in cells; host or cells: 22Rv1, PC-3, HepG2
T2 sequence (P15170 1-637 isoform P15170-3): as the sequence (P15170 1-637 isoform P15170-3) above
T2 sequence (Q96SW2 whole entry): as the sequence (Q96SW2 whole entry) above
T2 sequence (Q16531 whole entry partner): as the sequence (Q16531 whole entry partner) above
From the text: as §1, §2, §3, §4, §5

[4] = test system: C-33 A cells; test: Anti-proliferative toxicity of C63 in tumor cell lines (CCK8): C-33 A; type: cell-based; settings: Homo sapiens, 72 h, 3 days, read-out: Inhibition rate
Protocol: (§6) Example 83: Detection of Anti-Proliferative Toxicity of C63 in Some Tumor Cell Lines
C-33 A cells (purchased from the Cell Bank of the Chinese Academy of Sciences, Cat. No. TCHu176) were subcultured in a culture medium (MEM medium+1% penicillin-streptomycin dual-antibiotic solution+10% fetal bovine serum) in an incubator at 5% carbon dioxide and 37° C.
C-33 A cells were seeded at 5000 cells/well (90 μL) on a 96-well plate and cultured for 24 h.
(§7) 10 mM compound stock solutions were prepared in DMSO.
(§8) The compound stock solution was diluted with DMSO to give DMSO solutions 1-9 at concentrations of 0 μM, 2500 μM, 500 μM, 100 μM, 20 μM, 4 μM, 0.8 μM, 0.16 μM, and 0.032 μM.
(§9) 2 μL of each of solutions 1-9 was added to 98 μL of the medium to give mixed solutions 11-19 of the compound and the medium.
(§10) 10 μL of each of solutions 11-19 was added to the above cell seed solution to give a total volume of 100 μL (90 μL+10 μL).
(§11) The concentrations of the compound in the wells were 0 μM, 5.0 μM, 1.0 μM, 0.2 μM, 0.04 μM, 0.008 μM, 0.0016 μM, 0.00032 μM, and 0.000064 μM. All concentrations were in triplicate.
(§12) After the above-treated cells were cultured for 3 days, 10 μL of the CCK8 solution (DOJINDO, Cat. No. PF725) was added to each well. The plate was incubated in an incubator at 37° C. for 1-4 h and then detected on a microplate reader for the reading at 450 nm.

[5] = test system: BxPC-3 cells; test: Anti-proliferative toxicity of C63 in tumor cell lines (CCK8): BxPC-3; type: cell-based; settings: Homo sapiens, 72 h, 3 days, read-out: Inhibition rate
Protocol: as §6
BxPC-3 cells (purchased from the Cell Bank of the Chinese Academy of Sciences, Cat. No. TCHu12) were subcultured in a culture medium (RPMI-1640 medium+1% penicillin-streptomycin dual-antibiotic solution+10% fetal bovine serum) in an incubator at 5% carbon dioxide and 37° C.
BxPC-3 cells were seeded at 3000 cells/well (90 μL) on a 96-well plate and cultured for 24 h.
as §7, §8, §9, §10, §11, §12

`C[C@]12C=CC(=O)N[C@@H]1CC[C@@H]1[C@@H]2CC[C@]2(C)[C@@H](C(=O)Nc3cccc(N[C@@H]4CCC[C@@H](Nc5cccc6c5C(=O)N(C5CCC(=O)NC5=O)C6=O)C4)c3)CC[C@@H]12` (stereo partly drawn) [C59, N-(3-(N—(N-(4-(2-(3-(2,6-dioxopiperidine))-isoindole-1,3-dione))-1R,3R-cyclohexanediamine))phenyl)-3-oxo-4-aza-5α-androst-1-ene-17β-carboxamide] was tested, and the “downregulation of GSPT1 protein (Western blot)” value [1] was “downregulation”, the “downregulation of ARV7 protein (Western blot)” value [2] was “downregulation” and the “downregulation of GSPT1 (eRF3a) protein (Western blot)” value [3] was “downregulation”.
Compound `C[C@]12C=CC(=O)N[C@@H]1CC[C@@H]1[C@@H]2CC[C@]2(C)[C@@H](C(=O)Nc3cccc(N[C@@H]4CCC[C@@H](Nc5cccc6c5C(=O)N([C@H]5CCC(=O)NC5=O)C6=O)C4)c3)CC[C@@H]12` [C63, N-(3-(N—(N-(4-(2-(3S-(2,6-dioxopiperidine))-isoindole-1,3-dione))-1R,3R-cyclohexanediamine))phenyl)-3-oxo-4-aza-5α-androst-1-ene-17β-carboxamide] has an inhibition at 64 pM ([4]; 0.000064 μM) of 21.5%, an inhibition at 0.00032 µM ([4]; 0.000320 μM) of 15.9% and an inhibition at 0.0016 µM ([4]; 0.001600 μM) of 25.4%. For the same compound, the inhibition at 0.008 µM ([4]; 0.008000 μM) was 35.5%, the inhibition at 0.04 µM ([4]; 0.040000 μM) was 48.3% and the inhibition at 0.2 µM ([4]; 0.200000 μM) was 56.7%. The inhibition at 1 µM ([4]; 1.000000 μM) was 63.9%, the inhibition at 5 µM ([4]; 5.000000 μM) was 72.3% and the inhibition at 64 pM ([5]; 0.000064 μM) was 3.64%. The inhibition at 0.00032 µM ([5]; 0.000320 μM) was 22.6%, the inhibition at 0.0016 µM ([5]; 0.001600 μM) was 56.5% and the inhibition at 0.008 µM ([5]; 0.008000 μM) was 68.2%. It also gave an inhibition at 0.04 µM ([5]; 0.040000 μM) of 71.6%, an inhibition at 0.2 µM ([5]; 0.200000 μM) of 72.9% and an inhibition at 1 µM ([5]; 1.000000 μM) of 76.5%. The inhibition at 5 µM ([5]; 5.000000 μM) was 80.2%.
